Molecules are shown by their SMILES.

We go through one compound from US20210198201A1, “Orally Active Melanocortin Receptor-4 Compounds” (Palatin Technologies, Inc., priority 2018, published 2021).

One assay deals with T1, MC1r (Homo sapiens, UniProt Q01726).
T1 construct: expressed in transfected cells; host or cells: HEK-293 (membrane homogenates)
As to the kind of experiment: Competitive inhibition binding assay, MC1r. The note with it: binding studies. The protocol:
A competitive inhibition binding assay is performed using membrane homogenates prepared from HEK-293 cells that express recombinant hMC1ra, hMC4r, hMC3r, or hMC5r, and from B16-F10 mouse melanoma cells (containing endogenous MC1r). In the examples that follow, all values are for human recombinant receptors unless otherwise noted. Assays are performed in 96 well GF/B Millipore multiscreen filtration plates (MAFB NOB10) pre-coated with 0.5% bovine serum albumin (Fraction V). […] After incubation for 60 to 90 minutes at 37° C., the assay mixture is filtered and the membranes washed three times with ice-cold buffer. Filters are dried and counted in a gamma counter for bound radioactivity.
Maximal specific binding (100%) is defined as the difference in radioactivity (cpm) bound to cell membranes in the absence and presence of 1 μM NDP-α-MSH. […] Each assay is conducted in duplicate or triplicate and the actual mean values are described, with results less than 0% reported as 0%. Ki values for test compounds are determined using Graph-Pad Prism® curve-fitting software.

A further assay has as its target T2, hMC5r (Homo sapiens, UniProt P33032).
T2 construct: expressed in transfected cells; host or cells: CHO
As to the kind of experiment: cAMP assay hMC5r (human recombinant CHO cells, α-MSH reference). It counts as cell-based. The protocol: (§1) Melanocortin receptor binding and function of Compound 7.1 was tested. Ki binding values (nM) were calculated utilizing the percent inhibit of the binding of iodine-125 labeled NDP-α-MSH against B16-F1 cells for mMC1r, and human recombinant CHO cells for hMC3r, hMC4r and hMC5r, with the inhibition constant calculated using the Cheng Prusoff equation. Functional results (EC50 and efficacy) were calculated utilizing cAMP assays with NDP-α-MSH for mMC1r, hMC3r and hMC4r, ACTH for hMC2r, and α-MSH for hMC5r for agonist measures, with the same target cells for melanocortin receptors mMC1r, hMC3r, hMC4r and hMC5r, and human recombinant Cloudman M3 cells for hMC2r.
On the technique in general: Changes in cAMP serve as a functional read-out for many G protein-coupled receptors.

The test system of a further assay is MC4r (−/−) mice. Briefly: Oral administration in MC4r knockout mice, feed intake and body weight. It counts as in vivo, mouse. The protocol: Feed intake and body weight was evaluated in MCr4 knockout (MC4r−/−) mice (Jackson Laboratories) compared to C57Bl/6 DIO mice. […] Feed weights were taken at time 0, 2, 6 and 24 hours post lights out. […] The change in body weight is shown in FIG. 4 starting on study day 5, the first day of administration of compound 7.1. […] Additionally, there was a statistically significant mean difference, 2.8%, 95% Cl (1.281, 4.253), and p value <0.0001 between DIO mice receiving compound 7.1 and MC4r (−/−) receiving compound 7.1.

Assay [1] has as its target T3, MC4r (Homo sapiens, UniProt P32245). As to the kind of experiment: cAMP functional study in human MC4r expression system approximating maximal physiologic receptor densities. Type of assay: cell-based. On the set-up: host or cells: TREx-293. The note with it: low receptor density human MC4r system. The protocol:
Assay for Agonist Activity. Accumulation of intracellular cAMP was examined as a measure of the ability of the peptides of the present invention to elicit a functional response in HEK-293 cells that express MC4-R. Confluent HEK-293 cells that express recombinant hMC4-R were detached from culture plates by incubation in enzyme-free cell dissociation buffer. Dispersed cells were suspended in Hanks' Balanced Salt Solution containing 10 mM HEPES (pH 7.5), 1 mM MgCl2, 1 mM glutamine, 0.5% albumin and 0.3 mM 3-isobutyl-1-methyl-xanthine (IBMX), a phosphodiesterase inhibitor. The cells were plated in 96-well plates at a density of 0.5×10^5 cells per well and pre-incubated for 10 minutes. Cells were exposed for 15 minutes at 37° C. to peptides of the present invention dissolved in DMSO (final DMSO concentration of 1%) at a concentration range of 0.05-5000 nM in a total assay volume of 200 μL. NDP-α-MSH was used as the reference agonist. cAMP levels were determined by an HTRF® cAMP cell-based assay system from Cisbio Bioassays utilizing cryptate-labeled anti-cAMP and d2-labeled cAMP, with plates read on a Perkin-Elmer Victor plate reader at […]. Data analysis was performed by nonlinear regression analysis with Graph-Pad Prism® software. The maximum efficacies of the test peptides of the present invention were compared to that achieved by the reference melanocortin agonist NDP-αMSH.
Low Receptor Density Systems. In functional studies preferably a human MC4r expression system approximating maximal human physiologic receptor densities is employed. In one aspect, a tetracycline-regulated mammalian expression system that uses regulatory elements from the E. coli Tn10-encoded tetracycline (Tet) resistance operon was employed (T-REx™ System, Invitrogen). By use of the T-REx™ System, expression of the gene of interest, the human MC4-R gene, was repressed in the absence of tetracycline or doxycycline and induced in the presence of tetracycline or doxycycline, with receptor density being dependent on the concentration of tetracycline or doxycycline. See generally Yao F. et al: Tetracycline repressor, tetR, rather than the tetR-mammalian cell transcription factor fusion derivatives, regulates inducible gene expression in mammalian cells. Hum. Gene Ther. 9:1939-1950 (1998), incorporated here by reference. Regulation was based on the binding of tetracycline or doxycycline, a derivative of tetracycline, to the Tet repressor and derepression of the promoter controlling expression of the human MC4-R gene. In general tetracycline or related regulators, such as tetracycline-derivatives, may be used to induce the gene expression. An inducible expression plasmid for expression of human MC4-R gene under the control of the strong human cytomegalovirus immediate-early (CMV) promoter and two tetracycline operator 2 (TetO2) sites was employed, together with a regulatory plasmid, pcDNA6/TR, which encodes the Tet repressor (TetR) under the control of the human SV40 promoter. Thus, expression of the human MC4-R gene from the inducible expression vector was controlled by the strong CMV promoter into which 2 copies of the tet operator 2 (TetO2) sequence had been inserted in tandem. The TetO2 sequences consisted of 2 copies of 19-nucleotide sequence separated by a 2 base pair spacer. Each 19 nucleotide TetO2 sequence served as the binding site for 2 molecules of the Tet repressor. The expression vector pcDNA4/TO/MC4R was introduced into TREx-293 (Invitrogen, R710-07), a cell line stably expressing the tetracycline repressor pcDNA6/TR using lipofectamin 2000 reagent (Invitrogen, 11668-019). Alternatively, both the expression vector and repressor are introduced into host cells by standard transformation or transfection methods.

The target in assay [2] is T3, MC4r. Briefly: cAMP assay hMC4r (human recombinant CHO cells, NDP-α-MSH reference). Type of assay: cell-based. Set-up: expressed in transfected cells; host or cells: CHO. The protocol: as §1

T3 sequence (P32245 whole entry): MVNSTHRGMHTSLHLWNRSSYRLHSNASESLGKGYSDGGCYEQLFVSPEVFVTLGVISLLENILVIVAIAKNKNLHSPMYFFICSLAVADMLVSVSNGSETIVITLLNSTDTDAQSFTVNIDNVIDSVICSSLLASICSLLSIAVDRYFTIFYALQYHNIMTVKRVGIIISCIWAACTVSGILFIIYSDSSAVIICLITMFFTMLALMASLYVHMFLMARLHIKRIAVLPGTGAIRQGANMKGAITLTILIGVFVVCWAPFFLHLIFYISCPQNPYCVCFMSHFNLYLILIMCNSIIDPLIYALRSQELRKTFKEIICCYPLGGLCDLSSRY
T1 sequence (Q01726 whole entry): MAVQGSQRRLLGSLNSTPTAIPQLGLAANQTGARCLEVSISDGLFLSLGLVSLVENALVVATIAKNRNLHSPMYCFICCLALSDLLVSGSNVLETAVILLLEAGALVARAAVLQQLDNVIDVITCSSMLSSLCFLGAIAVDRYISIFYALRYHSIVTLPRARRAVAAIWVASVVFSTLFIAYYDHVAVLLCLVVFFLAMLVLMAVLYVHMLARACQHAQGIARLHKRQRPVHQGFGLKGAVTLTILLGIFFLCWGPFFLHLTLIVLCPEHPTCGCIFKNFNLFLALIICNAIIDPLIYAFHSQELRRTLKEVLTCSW
T2 sequence (P33032 whole entry): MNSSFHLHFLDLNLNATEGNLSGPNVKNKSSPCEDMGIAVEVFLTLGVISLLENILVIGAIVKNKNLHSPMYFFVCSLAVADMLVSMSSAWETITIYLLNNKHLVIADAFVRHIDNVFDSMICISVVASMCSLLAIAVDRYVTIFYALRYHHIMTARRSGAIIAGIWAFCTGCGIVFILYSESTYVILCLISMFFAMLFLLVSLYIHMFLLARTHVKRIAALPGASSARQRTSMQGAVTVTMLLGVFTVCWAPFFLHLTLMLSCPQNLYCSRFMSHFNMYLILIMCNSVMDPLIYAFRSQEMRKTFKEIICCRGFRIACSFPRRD

Turning to `CC(=O)N1CCC(N(CC(C)C)N2CCN(C(=O)[C@@H](Cc3ccc(Cl)cc3)NC(=O)C(C)(C)N)CC2)CC1` [Compound 7.1, N-[(1R)-2-[4-[(1-acetyl-4-piperidyl)-isobutyl-amino]piperazin-1-yl]-1-[(4-chlorophenyl)methyl]-2-oxo-ethyl]-2-amino-2-methyl-propanamide], at MC1r, the Ki was determined as 200 nM. For the same compound, the EC50 at hMC5r is over 1000 nM; on MC4r [1] it was 23 nM; on MC4r [2], 6 nM. In addition, in the assay with MC4r (−/−) mice (30 mg/kg twice daily), the “notable mean percentage body weight change difference between treated group and vehicle (in words)” value is “not”. The “food consumption vs vehicle only (in words)” value in the assay with MC4r (−/−) mice (30 mg/kg twice daily oral gavage) is on record as “no differences”. Also, at MC4r [1] (read-out: relative efficacy, compared to NDP-α-MSH), the Emax was found to be 33%.

One may read the Ki as a dissociation constant, usually derived from enzyme kinetics or from competition with a known ligand. A higher Ki goes with lower affinity. As usually defined, the EC50 is the concentration needed to bring the measured effect to its halfway point.
